# What was measured:
# [1] = test system: HCT15 (HER2-positive colorectal cancer cell line); test: antiproliferative effect, HCT15; format: cell-based; conditions: Homo sapiens, HCT-15, 72 hours
# Experimental: The antiproliferative effects were measured after treating Compounds 1 to 22 for 72 hours on HCT15 (HER2-positive colorectal cancer cell line), NCI-N87 (HER2-positive gastric cancer cell line), T47D (HER2-negative breast cancer cell line), and HeLa (HER2-negative cervical cancer cell line). As a result, strong antiproliferative effects were generally observed in the NCI-N87 cell line (Table 2).
# The antiproliferative effects of the candidate compound, resulting from HER2 inhibition, were evaluated. Specifically, to confirm the anticancer effects of the candidate compound, cancer cells were seeded at a density of 10^4 cells/well in a 96-well cell culture plate for 20 hours. The cells were starved in serum-free media for 4 hours, followed by replacement with media containing the compound at specified concentrations. The cells were then incubated for 72 hours under conditions of 5% CO2 at 37 °C. Cell viability was determined by adding 5 μL of EZ-CytoX to each well and measuring absorbance at 450 nm. The measurements were performed using an ELISA Microplate Reader (VersaMax, Molecular Devices).
# [2] = target: MED23 wild-type (FLAG-tagged) (Homo sapiens, UniProt Q9ULK4); test: LC-MS/MS protein-small molecule interaction, wild-type MED23; format: binding; conditions: FLAG pulldown, LC-MS/MS
# Chain of MED23 wild-type (FLAG-tagged) (Q9ULK4 whole entry): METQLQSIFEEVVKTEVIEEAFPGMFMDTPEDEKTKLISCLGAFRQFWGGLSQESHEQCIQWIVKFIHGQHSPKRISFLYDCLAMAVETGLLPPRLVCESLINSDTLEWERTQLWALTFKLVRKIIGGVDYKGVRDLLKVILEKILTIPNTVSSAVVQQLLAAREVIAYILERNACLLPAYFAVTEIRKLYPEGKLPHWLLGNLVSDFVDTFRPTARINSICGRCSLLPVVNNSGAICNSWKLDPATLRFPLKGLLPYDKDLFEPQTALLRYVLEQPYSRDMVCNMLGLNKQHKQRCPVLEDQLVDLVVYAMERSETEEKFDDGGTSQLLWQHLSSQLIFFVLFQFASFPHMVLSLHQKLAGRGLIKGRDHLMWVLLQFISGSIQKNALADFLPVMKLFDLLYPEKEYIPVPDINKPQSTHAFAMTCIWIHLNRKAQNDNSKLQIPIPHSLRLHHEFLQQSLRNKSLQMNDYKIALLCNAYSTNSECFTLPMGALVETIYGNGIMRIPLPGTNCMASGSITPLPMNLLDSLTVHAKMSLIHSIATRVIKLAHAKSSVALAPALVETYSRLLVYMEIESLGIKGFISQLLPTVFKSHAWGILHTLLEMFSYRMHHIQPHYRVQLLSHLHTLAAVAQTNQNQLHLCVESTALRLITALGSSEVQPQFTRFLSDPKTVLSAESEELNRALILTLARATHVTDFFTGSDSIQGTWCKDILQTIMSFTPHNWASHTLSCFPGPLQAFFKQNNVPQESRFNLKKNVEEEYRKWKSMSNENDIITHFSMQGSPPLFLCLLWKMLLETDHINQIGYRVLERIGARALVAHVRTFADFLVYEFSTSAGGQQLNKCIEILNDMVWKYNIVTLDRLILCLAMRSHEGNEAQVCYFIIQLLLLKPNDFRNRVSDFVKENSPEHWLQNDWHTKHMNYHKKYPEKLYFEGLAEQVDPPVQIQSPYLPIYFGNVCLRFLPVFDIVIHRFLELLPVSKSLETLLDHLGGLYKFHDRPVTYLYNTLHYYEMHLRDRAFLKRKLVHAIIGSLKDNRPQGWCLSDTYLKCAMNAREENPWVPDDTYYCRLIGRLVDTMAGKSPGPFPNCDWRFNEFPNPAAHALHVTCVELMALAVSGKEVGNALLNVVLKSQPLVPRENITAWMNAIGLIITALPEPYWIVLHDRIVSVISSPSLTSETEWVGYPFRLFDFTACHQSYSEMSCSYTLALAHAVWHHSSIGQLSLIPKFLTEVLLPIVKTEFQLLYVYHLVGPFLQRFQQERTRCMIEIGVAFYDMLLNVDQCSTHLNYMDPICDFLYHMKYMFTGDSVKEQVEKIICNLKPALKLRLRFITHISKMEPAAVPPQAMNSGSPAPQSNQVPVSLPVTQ
# Experimental: HEK293 cells were seeded in a […] and incubated until they reached 70-80% confluency. The cells were transfected with p3Xflag-myc-CMV26-MED23^WT and p3Xflag-myc-CMV26-MED23^D400A/H449G plasmids for 24 hours, followed by lysis to obtain protein extracts. To isolate the candidate compound (YK1) bound to MED23, total lysates were incubated with YK1 for 4 hours and subsequently subjected to pulldown using FLAG-agarose beads (Sigma Aldrich, USA). The precipitated beads were washed at least three times to completely remove unbound compounds. To separate the candidate compound from the precipitated MED23, 50 μL of the sample was extracted with 1 mL of acetonitrile and centrifuged at 13,000 rpm at 4 °C for 10 minutes. The supernatant (1,000 μL) from each sample was transferred to a new tube and dried under nitrogen gas at 37 °C. For YK1 analysis, the residue was dissolved in 50 μL of ACN and vortexed for 10 minutes. […] The mixture was then extracted with 450 μL of ACN by ultrasonic treatment and vortex mixing. The candidate compound bound to MED23 was finally analyzed using an Agilent 6460 triple quadrupole mass spectrometer (Agilent Technologies, USA).
# ErbB2 = ErbB2 (Homo sapiens, UniProt P04626); test: kinase profiling, ErbB2; format: biochemical; conditions: read-out: In vitro kinase inhibitory activity (%)
# Chain of ErbB2 (P04626 676-1255 limits assumed): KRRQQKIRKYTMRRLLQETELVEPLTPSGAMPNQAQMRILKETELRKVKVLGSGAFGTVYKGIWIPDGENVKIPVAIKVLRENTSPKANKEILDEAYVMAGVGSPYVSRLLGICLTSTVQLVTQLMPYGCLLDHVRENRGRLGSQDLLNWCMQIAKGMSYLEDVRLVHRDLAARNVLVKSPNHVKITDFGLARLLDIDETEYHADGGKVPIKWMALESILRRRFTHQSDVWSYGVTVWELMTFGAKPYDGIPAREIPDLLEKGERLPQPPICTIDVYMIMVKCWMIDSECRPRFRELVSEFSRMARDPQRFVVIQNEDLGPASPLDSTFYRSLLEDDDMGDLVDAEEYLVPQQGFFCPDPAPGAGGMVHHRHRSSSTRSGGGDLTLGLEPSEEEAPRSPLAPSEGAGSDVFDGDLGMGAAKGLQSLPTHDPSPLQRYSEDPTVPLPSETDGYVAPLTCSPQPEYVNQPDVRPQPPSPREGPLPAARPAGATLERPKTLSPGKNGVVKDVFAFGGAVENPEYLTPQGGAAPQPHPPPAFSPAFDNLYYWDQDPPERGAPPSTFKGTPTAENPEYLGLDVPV
# Experimental: Kinase inhibitory activity of the candidate compound at 10 μM and 25 μM was assessed using Eurofins Kinase Profiling Services. Inhibitory effects on c-RAF, EGFR, ErbB2, ErbB4, and PI3 kinase were analyzed according to the Kinase Profiler Service Assay protocol.
# NCI-N87 xenograft = test: NCI-N87 xenograft, tumor growth; format: in vivo, mice; conditions: 4 mg/kg, intravenous, six times at 3-day intervals
# Experimental: Xenograft mice were generated to evaluate the anticancer effects of the candidate compound. NCI-N87 and JIMT-1 cells (5×10^6 cells), dissolved in 100 μL of 1× phosphate-buffered saline (PBS), were subcutaneously injected into the right flanks of 5-week-old female athymic nude mice (Envigo, USA) or 4-week-old female NOD-SCID mice (Koatech, South Korea). When the tumors reached a volume of 90-100 mm^3, the mice were randomized into designated groups. For the NCI-N87 xenograft, intravenous administration was performed six times at 3-day intervals. For the JIMT-1 xenograft, intraperitoneal administration was performed eight times at 3-day intervals. […] Tumor size changes were monitored until the mean tumor size in the control group reached 2,000-2,500 mm^3. On day 28 for the NCI-N87 xenograft and day 46 for the JIMT-1 xenograft, the mice were sacrificed, and tumors were excised to determine relative tumor sizes. Tumor length (L) and width (W) were measured with calipers, and tumor volume was calculated using the formula: […]
# NCI-N87 cells = test: apoptosis analysis (Annexin V, FACS); format: cell-based; conditions: dose-dependent
# Experimental: Specifically, 5×10^5 NCI-N87 cells were seeded in 60 mm dishes and cultured until they reached 70-80% confluence. The cells were treated with varying concentrations of the candidate compound and cultured for 8 hours. The cells were treated with trypsin and then washed with cold PBS (pH 7.4). For cell cycle analysis, the cells were fixed with 70% ethanol and cultured at 4 °C for 30 minutes, followed by staining with FxCycle™ PI/RNase staining solution (Invitrogen™, USA). Cell cycle analysis was performed using a fluorescence-activated cell sorting (FACS) device (BD Biosciences, USA).
# Cells for apoptosis analysis were prepared using the same method as described for the cell cycle analysis. The cells were treated with trypsin, washed with 1×PBS, and resuspended in each sample using the FITC Annexin V Apoptosis Detection Kit I (BD Pharmingen™). Apoptosis was analyzed using a FACS device.
# [3] = test system: c-PARP, c-caspase 7, bcl-2; test: pro- and anti-apoptotic marker levels; format: cell-based
# Experimental: For western blot analysis, cells were seeded in a 6-well plate and lysed in 1×RIPA lysis buffer (Cell Signaling, USA) containing 1% 0.1 M [COMPOUND LEFT OUT] and 1% 100× protease inhibitor cocktail solution (Genedepot, USA). Total protein levels were standardized using the Pierce™ BCA Protein Assay Kit (Thermo Fisher Scientific, USA) and a microplate reader (Tecan Group Ltd., Switzerland). A total of 20 μg of protein was loaded onto a 10-15% SDS-PAGE acrylamide gel and transferred to a 0.2 μm PVDF membrane (Pall Life Science, USA). The membrane was blocked with 5% skim milk or 5% BSA, and the membrane was cultured with primary antibodies (purchased from Thermo Fisher, Cell Signaling, Santa Cruz, Novus, or MBL) at room temperature for 3 hours or overnight at 4 °C. The blot was washed three times with Tris-buffered saline containing 0.1% Tween20 (1×TBST) and incubated with an HRP-conjugated secondary antibody (GeneTex, USA). Protein bands were detected using ECL solution reagents (GE Healthcare, USA) and the LAS-3000 imaging system (Fuji Photo Film Co., Ltd., Japan), and captured images were analyzed using Multi-Gauge software (Fuji Photo Film Co. Ltd.). […]
# Specifically, 5×10^5 NCI-N87 cells were seeded in 60 mm dishes and cultured until they reached 70-80% confluence. […] Cell cycle analysis was performed using a fluorescence-activated cell sorting (FACS) device (BD Biosciences, USA).
# solubility = format: physicochemical; conditions: pH 7
# [4] = pharmacokinetic profiling; format: in vivo
# TZMB-sensitive cells = test: treatment of TZMB-sensitive cells; format: cell-based; conditions: parent BT474 and NCI-N87
# Experimental: (§1) The ability of the candidate compound to overcome trastuzumab resistance was evaluated.
# TZMB-resistant cells = test: treatment of TZMB-resistant cells; format: cell-based; conditions: BT474 TR, NCI-N87 TR, JIMT-1
# Experimental: as §1
compound,measurement,setting,value
"CC(=O)N1N=C(c2cccc(O)c2)CC1c1ccc(Cl)cc1 (stereo not shown) [Compound 15, 1-[5-(4-Chlorophenyl)-3-(3-hydroxyphenyl)-4,5-dihydropyrazol-1-yl]-ethanone]",IC50,[1],7.66 ± 0.04 µM
same,binding to wild-type MED23,[2],able to bind to wild-type MED23
same,inhibition at 10 µM,"ErbB2; ErbB2, 10 μM",2%
same,inhibition at 25 µM,"ErbB2; ErbB2, 25 μM",0%
same,tumor volume / growth,NCI-N87 xenograft,"tumor volume was significantly reduced, and tumor growth was delayed"
same,apoptosis,NCI-N87 cells,significantly promoted apoptosis in a dose-dependent manner
same,anti-apoptotic marker bcl-2,[3],reduced the levels of the anti-apoptotic marker bcl-2
same,pro-apoptotic markers c-PARP and c-caspase 7,[3],induced an increase in the pro-apoptotic markers c-PARP and c-caspase 7
same,solubility,solubility,103.2 ± 0.6 µg/mL
same,half-life T1/2 (IV),[4]; intravenous,9.74 ± 2.76 h
same,bioavailability (Ft),[4]; intravenous and oral routes,25.1%
same,anticancer effect in TZMB-sensitive cells,TZMB-sensitive cells,significant anticancer effects not only in TZMB-sensitive cells but also in TZMB-resistant cells
same,anticancer effect in TZMB-resistant cells,TZMB-resistant cells,significant anticancer effects not only in TZMB-sensitive cells but also in TZMB-resistant cells
